From patent US6635459B1, “Nucleotide sequences encoding pinoresinol/lariciresinol reductase proteins and their methods of use” (Washington State University Research Foundation, priority 1996, dated 2003)

Legend:
[1] = system: HIV; conditions: cited from earlier work
[2] = system: HW-1; conditions: cited from earlier work
[3] = molecular target: T1, 35 kDa form of (+)-pinoresinol/(+)-lariciresinol reductase (Forsythia intermedia, UniProt P93143); assay: Initial velocity studies, reductase 35 kDa isoform; assay type: biochemical; conditions: 35 kDa form of the enzyme; NADPH 80 μM, pH 7.4, 30° C.
T1 construct: pure enzyme (after MonoQ anion-exchange chromatography); from tissue; host or cells: Forsythia intermedia stems
T1 sequence (P93143 2-312): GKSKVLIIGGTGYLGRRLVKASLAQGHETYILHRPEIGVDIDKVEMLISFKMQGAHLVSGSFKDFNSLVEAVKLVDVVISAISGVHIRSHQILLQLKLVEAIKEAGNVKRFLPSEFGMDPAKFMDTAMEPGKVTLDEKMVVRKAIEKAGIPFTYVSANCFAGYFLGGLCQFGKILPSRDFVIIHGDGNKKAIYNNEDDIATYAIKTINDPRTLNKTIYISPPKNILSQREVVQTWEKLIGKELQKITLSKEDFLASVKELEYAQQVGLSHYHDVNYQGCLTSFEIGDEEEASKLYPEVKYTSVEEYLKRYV
Description: (§1) Kinetic Parameters. […] The initial velocity studies were carried out individually utilizing the two isoforms of the enzyme, and individually employing both (+)-pinoresinol and (+)-lariciresinol as substrates. Initial velocity studies were performed in triplicate experiments, using 50 mM Bis-Tris Propane buffer, pH 7.4 containing 5 mM dithiothreitol, pure enzyme (after MonoQ anion-exchange chromatography), ten different substrate concentrations (between 8.8 and 160 μM) at a constant NADPH concentration (80 μM). Incubations were carried out at 30° C. for 10 min (within the linear kinetic range). Kinetic parameters were determined from Lineweaver-Burk plots.

[4] = molecular target: 36 kDa form of (+)-pinoresinol/(+)-lariciresinol reductase (Forsythia x intermedia, UniProt P93143); assay: Initial velocity studies, reductase 36 kDa isoform; conditions: 36 kDa form of the enzyme; NADPH 80 μM, pH 7.4, 30° C.
Description: as §1

[5] = system: cAMP-phosphodiesterase; conditions: cited from earlier work
[6] = system: (±)-pinoresinols; assay: Substrate specificity of recombinant Thuja plicata reductases expressed in E. coli; assay type: biochemical; conditions: β-galactosidase fusion in E. coli total protein extract, 3 hour incubation at 30° C.

## (−)-trachelogenin
[1]
  effectiveness against HIV (reverse transcriptase inhibitory activities): effective against HIV
[2]
  inhibition of in vitro replication of HW-1: inhibits

## COc1cc(C[C@]2(O)C(=O)OC[C@H]2Cc2ccc(OC)c(OC)c2)ccc1O (single isomer, unassigned) [(+)-enantiomer]
[2]
  inhibition of in vitro replication of HW-1: much less effective

## (+)-pinoresinol
[3]
  Km: 27 ± 1.5 µM
  Vmax (apparent maximum velocity): 16.2±0.4 μmol h^−1 mg^−1 of protein
[4]
  Km: 23 ± 1.3 µM
  Vmax (apparent maximum velocity): 17.3±0.5 μmol h^−1 mg^−1 of protein

## COc1cc(C[C@H]2COC(=O)[C@@H]2Cc2ccc(O)c(OC)c2)ccc1O [matairesinol]
[5]
  cAMP-phosphodiesterase inhibition: inhibit cAMP-phosphodiesterase

B1: plr-Tp1: Thuja plicata (−)-pinoresinol/(−)-lariciresinol reductase (SEQ ID NO:62) expressed in E. coli (protein)
chain: MDKKSRVLIVGGTGYIGKRIVNASISLGHPTYVLFRPEVVSNIDKVQMLLYFKQLGAKLIEASLDDHQRLVDALKQVDVVISALAGGVLSHHILEQLKLVEAIKEAGNIKRFLPSEFGMDPDIMEHALQPGSITFIDKRKVRRAIEAASIPYTYVSSNMFAGYFAGSLAQLDGHMMPPRDKVLIYGDGNVKGIWVDEDDVGTYTIKSIDDPQTLNKTMYIRPPMNILSQKEVIQIWERLSEQNLDKIYISSQDFLADMKDKSYEEKIVRCHLYQIFFRGDLYNFEIGPNAIEATKLYPEVKYVTMDSYLERYV
[6]
  substrate specificity: can use both (−)-pinoresinol and (+)-pinoresinol as substrates

B2: plr-Tp2: Thuja plicata (+)-pinoresinol/(+)-lariciresinol reductase (SEQ ID NO:64) expressed in E. coli (protein)
chain: MEESSRVLIVGGTGYIGRRIVKASIALGHPTFILFRKEVVSDVEKVEMLLSFKKNGAKLLEASFDDHESLVDAVKQVDVVISAVAGNHMRHHILQQLKLVEAIKEAGNIKRFVPSEFGMDPGLMEHAMAPGNIVFIDKIKVREAIEAASIPHTYISANIFAGYLVGGLAQLGRVMPPSEKVILYGDGNVKAVWVDEDDVGIYTIKAIDDPHTLNKTMYIRPPLNILSQKEVVEKWEKLSGKSLNKINISVEDFLAGMEGQSYGEQIGISHFYQMFYRGDLYNFEIGPNGVEASQLYPEVKYTTVDSYMERYL
[6]
  substrate specificity: same substrate specificity and product formation as the original Forsythia intermedia reductase
